From BindingDB's records for patent US20240382465 (Zhejiang Hisun Pharmaceutical, 2024)

Target: T1, UDP-3-O-acyl-N-acetylglucosamine deacetylase (Pseudomonas aeruginosa (strain ATCC 15692 / DSM 22644 / CIP 104116 / JCM 14847 / LMG 12228 / 1C / PRS 101 / PAO1), UniProt P47205)
T1 sequence (P47205 whole entry): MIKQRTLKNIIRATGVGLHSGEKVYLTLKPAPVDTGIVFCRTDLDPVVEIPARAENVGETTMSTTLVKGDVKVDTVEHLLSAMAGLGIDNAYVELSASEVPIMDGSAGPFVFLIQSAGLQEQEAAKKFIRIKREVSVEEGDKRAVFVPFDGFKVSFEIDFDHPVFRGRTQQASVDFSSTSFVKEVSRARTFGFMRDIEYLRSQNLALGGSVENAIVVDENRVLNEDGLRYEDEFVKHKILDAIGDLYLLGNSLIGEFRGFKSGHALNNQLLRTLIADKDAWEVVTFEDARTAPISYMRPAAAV
Test: LpxC Enzymatic Activity Assay
Experimental: The experimental procedure is briefly described as follows: The test compound was first dissolved in DMSO to prepare a 10 mM stock solution. The reaction was carried out in a 96-well microplate. First, 20 μL of recombinant Pseudomonas aeruginosa LpxC (purchased from Signalway Antibody, product number AP74647-2) was added to each well, with a final concentration of 5 nM. 5 μL of the compound to be tested was then added, and the compound was diluted 4 times to 8 concentration points with a concentration range of 0.61-10,000 nM. 5 μL of LpxC substrate UDP-3-O—(R-3-hydroxydecanoyl)-GlcNAc (purchased from Biosynth Carbosynth, product number: mu75071) was added, with a final concentration of the substrate of 10 μM. The plate was incubated at 25° C. for 120 minutes. Then 20 μL of 2.0 mg/mL fluorescamine (purchased from sigmaaldrich, product number: F9015, solvent: 1:1 dimethylformamide/acetonitrile) was added to the reaction system, and mixed well for 10 minutes of reaction. Finally, 50 μL of 200 mM sodium phosphate buffer (pH 8.0) was added to terminate the reaction. Reading was carried out using a microplate reader (BMG), and the excitation and emission wavelengths were 390 and 495 nm respectively.

## C[C@H](O)c1nccn1Cc1cc(-c2ccc(C#Cc3ccc(N4CCN(C)CC4)cc3)cc2)on1 [US20240382465, Example 65]
  IC50: 64.6 nM

## C[C@H](O)c1nccn1Cc1cc(-c2ccc(C#Cc3ccc(NC4CCOCC4)cc3)cc2)on1 [US20240382465, Example 66]
  IC50: 67.9 nM
